Results: PubChem BioAssay (NCI)
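Assay format: 96-well plates, 48-hour exposure. GI50: concentration for 50% inhibition of growth. Definition used: TGI = concentration required for complete inhibition of growth.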

What was measured:
Assay in all cases: DTP human tumour cell line panel, 48 h
MDA-MB-468 breast = test system: MDA-MB-468 breast
SK-MEL-5 melanoma = test system: SK-MEL-5 melanoma
CCRF-CEM leukemia = test system: CCRF-CEM leukemia
NCI/ADR-RES ovarian = test system: NCI/ADR-RES ovarian
SF-268 CNS = test system: SF-268 CNS
OVCAR-3 ovarian = test system: OVCAR-3 ovarian
SK-OV-3 ovarian = test system: SK-OV-3 ovarian
NCI-H226 lung = test system: NCI-H226 lung
NCI-H23 lung = test system: NCI-H23 lung
TK-10 renal = test system: TK-10 renal
MCF7 breast = test system: MCF7 breast
IGROV1 ovarian = test system: IGROV1 ovarian
M14 melanoma = test system: M14 melanoma
MDA-MB-435 = test system: MDA-MB-435
HCT-15 colon = test system: HCT-15 colon
LOX IMVI melanoma = test system: LOX IMVI melanoma
SK-MEL-28 melanoma = test system: SK-MEL-28 melanoma
MOLT-4 leukemia = test system: MOLT-4 leukemia
T-47D breast = test system: T-47D breast
HL-60(TB) leukemia = test system: HL-60(TB) leukemia
PC-3 prostate = test system: PC-3 prostate
MDA-MB-231 breast = test system: MDA-MB-231 breast
MALME-3M melanoma = test system: MALME-3M melanoma
HOP-92 NSCLC = test system: HOP-92 NSCLC
SK-MEL-2 melanoma = test system: SK-MEL-2 melanoma
A549 NSCLC = test system: A549 NSCLC
SF-539 CNS = test system: SF-539 CNS
OVCAR-5 ovarian = test system: OVCAR-5 ovarian
EKVX NSCLC = test system: EKVX NSCLC
SNB-19 CNS = test system: SNB-19 CNS

## O=C(CNc1nc(-c2ccccc2)cs1)Nc1cccc(Cl)c1
MDA-MB-468 breast
  TGI: 13.5 µM
SK-MEL-5 melanoma
  GI50: 7.04 µM
  TGI: 19.8 µM
CCRF-CEM leukemia
  GI50: 3.76 µM
  TGI: > 100 µM
NCI/ADR-RES ovarian
  GI50: 6.39 µM
  TGI: 45.3 µM
SF-268 CNS
  GI50: 7.45 µM
  TGI: 52.3 µM
OVCAR-3 ovarian
  GI50: 7.14 µM
  TGI: 21.5 µM
SK-OV-3 ovarian
  GI50: 14.1 µM
  TGI: 44.9 µM
NCI-H226 lung
  GI50: 10.1 µM
  TGI: 45.4 µM
NCI-H23 lung
  GI50: 9.24 µM
  TGI: 22.8 µM
TK-10 renal
  GI50: 14.9 µM
  TGI: 29.7 µM
MCF7 breast
  GI50: 5.42 µM
  TGI: 18.3 µM
IGROV1 ovarian
  GI50: 5.27 µM
  TGI: 21.5 µM
M14 melanoma
  GI50: 10.4 µM
  TGI: 42.3 µM
MDA-MB-435
  GI50: 12.5 µM
  TGI: 33.5 µM
HCT-15 colon
  GI50: 4.49 µM
  TGI: 16.1 µM
LOX IMVI melanoma
  GI50: 3.31 µM
  TGI: 16.4 µM
SK-MEL-28 melanoma
  GI50: 13 µM
  TGI: 25.9 µM
MOLT-4 leukemia
  GI50: 3.22 µM
  TGI: 15.9 µM
T-47D breast
  GI50: 6.04 µM
  TGI: 22.6 µM
HL-60(TB) leukemia
  GI50: 3.53 µM
  TGI: 23.1 µM
PC-3 prostate
  GI50: 2.86 µM
  TGI: 37.6 µM
MDA-MB-231 breast
  GI50: 4.03 µM
  TGI: 17.8 µM
MALME-3M melanoma
  GI50: 15 µM
  TGI: 28.3 µM
HOP-92 NSCLC
  GI50: 2.37 µM
  TGI: 15.1 µM
SK-MEL-2 melanoma
  GI50: 11.8 µM
  TGI: 26 µM
A549 NSCLC
  GI50: 9.22 µM
  TGI: 62.4 µM
SF-539 CNS
  GI50: 11.2 µM
  TGI: 23.3 µM
OVCAR-5 ovarian
  GI50: 13 µM
  TGI: 25.7 µM
EKVX NSCLC
  GI50: 3.59 µM
  TGI: 15.3 µM
SNB-19 CNS
  GI50: 11 µM
  TGI: 28 µM
